Test results reported in patent US10906890B2, “Triazole phenyl compounds as agonists of the APJ receptor” (AMGEN INC., priority 2016, dated 2021).
pEC50: −log10 of the molar value.

Columns and labels:
[1] = system: Heart failure rat model (MI Rat Model); assay: In vivo heart failure (MI) rat model, cardiac contractility; conditions: heart failure rats in vivo, acute settings, with ACE inhibitor captopril
Experimental: Based on the ex vivo findings in isolated heart assay, APJ agonists were dosed in vivo to investigate the translation of cardiac contractility in in vivo settings. Male Lewis rats (Charles River, USA) at 2-3 months of age were used for the study. Heart failure was induced by permanent ligation of the left descending coronary artery which results in injury to the heart with an ejection fraction of <35%. APJ agonists were administered dose dependently acutely for a period of 30 min. Administration of example compounds lead to an increase in cardiac contractility as measured by dP/dtmax (derivative of left ventricular pressure) (Table 29).

[2] = molecular target: human APJ receptor (Homo sapiens (Human), UniProt P35414); assay: [35S]GTPγS binding assay on membranes from CHO cells stably expressing human APJ receptor; format: biochemical; conditions: means of several independent experiments, read-out: Activity hAPJ SPA EC50 IP
human APJ receptor, sequence (P35414 whole entry): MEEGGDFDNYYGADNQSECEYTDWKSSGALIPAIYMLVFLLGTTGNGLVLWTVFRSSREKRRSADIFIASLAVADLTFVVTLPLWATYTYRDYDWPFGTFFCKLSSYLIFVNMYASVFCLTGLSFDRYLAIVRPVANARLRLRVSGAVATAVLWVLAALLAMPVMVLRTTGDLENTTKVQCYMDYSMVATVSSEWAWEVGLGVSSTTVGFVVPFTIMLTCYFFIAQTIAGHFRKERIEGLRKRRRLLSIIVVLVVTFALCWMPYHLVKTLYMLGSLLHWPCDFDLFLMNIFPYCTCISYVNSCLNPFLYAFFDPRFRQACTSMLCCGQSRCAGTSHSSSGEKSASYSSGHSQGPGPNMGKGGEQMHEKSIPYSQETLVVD
How it was run: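 Membranes from CHO cells stably expressing FLAG-tagged human APJ incubated with [35S]GTPγS in buffer with optimized GDP, MgCl2 and NaCl levels, 90 min at RT. Signal read by imaging; EC50 by non-linear regression from means of several independent experiments.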

[3] = molecular target: human APJ-AT1R (angiotensin Type 1) double stable CHO cell line (Homo sapiens (Human), UniProt P35414); assay: IP1 accumulation (TR-FRET) with AngII in APJ-AT1R double stable CHO cells; format: cell-based; conditions: fixed concentration of agonist with different concentrations of AngII
human APJ-AT1R (angiotensin Type 1) double stable CHO cell line, sequence (P35414 whole entry): as above
Experimental: Briefly, the CHO-K1 APJ/AT1R cells were seeded in culture medium of DMEM-F12 and 10% FBS at a density of 15 k/well in a 96 well plate overnight. The next day, the culture medium was replaced with medium containing no serum for 4 hours. The compound AngII at a range of concentrations (1 pM-10 μM) with or without different concentrations of APJ agonists were diluted in stimulation buffer and added to the cell plate. The plate was sealed and incubated for 1 hour. This was followed by addition of IP-d2 conjugate followed by europium cryptate antibody conjugate into the wells. The plate was sealed, followed with incubation for 2 hours at RT. Time-resolved fluorescence resonance energy (TR-FRET) at 620 nm and 665 nm was measured after 2 hours with an Envision reader. The signal ratios and delta F were calculated and the amount of IP1 produced was inversely proportional to the TR-FRET ratio, 665/620 nm.

Q: How did the “improvement in contractility or ejection fraction” value [1] turn out when `C[C@H](CS)C(=O)N1CCC[C@H]1C(=O)O` [Captopril, captopril] was run?
A: does not show a marked improvement in contractility or ejection fraction

Q: With `COc1ncnc(OC)c1-n1c(NS(=O)(=O)[C@@H](C)[C@H](C)c2ccc(Cl)cn2)nnc1-c1ccccc1` [Example 127.0] as the compound, how does the pEC50 [2] read?
A: 9.02

Q: `COc1cnc([C@@H](C)[C@H](C)S(=O)(=O)Nc2nnc(-c3ccccc3Br)n2C2COC(C)(C)OC2)nc1` [Example 128.0] was tested. Which pEC50 [2] did it give?
A: 6.04

Q: `COCCn1c(NS(=O)(=O)[C@@H](C)[C@H](OC)c2ncc(Cl)cn2)nnc1-c1ccccc1` [Example 129.0] was tested. Which pEC50 [2] did it give?
A: 7.85

Q: Which “positive cooperativity on AngII IP1 response” value [3] does the source give for `CCCCc1nc(Cl)c(CO)n1Cc1ccc(-c2ccccc2-c2nn[nH]n2)cc1` [losartan] here?
A: relieved this cooperativity
